Consider 13 compounds from patent US8653127B2, “Bicyclic pyrazolo-heterocycles” (Cara Therapeutics, Inc., priority 2009, dated 2014).

Test [1] concerns rat L5/L6 SNL model. Nature of the test: Spinal nerve ligation (SNL) model of neuropathic pain, mechanical allodynia. Type of test: in vivo. The following applies: two-way repeated measurement ANOVA, FIG. 1. How it is done: The SNL model (Kim and Chung, 1992, Pain 50(3):355-63) was used to induce chronic neuropathic pain in rats. Rats were anesthetized with isoflurane, the left L5 transverse process was removed, and the L5 and L6 spinal nerves were tightly ligated with 6-0 silk suture. The wound was then closed with internal sutures and external staples. Following at least seven days post SNL, baseline, post-injury and post-treatment values for non-noxious mechanical sensitivity were evaluated using eight Semmes-Weinstein filaments (Stoelting, Wood Dale, Ill., USA) with varying stiffness (0.4, 0.7, 1.2, 2.0, 3.6, 5.5, 8.5, and 15 g) according to the up-down method (Chaplan et al., 1994, J. Neurosci. Meth., 53(1):55-63). Animals were placed on a perforated metallic platform and allowed to acclimate to their surroundings for a minimum of 30 mins before testing.
Rat L5/L6 SNL model (n=6/group; mean±sem). Sensitivity to non-noxious mechanical stimuli was tested before and at various time points following oral administration of compound (36). The mean and standard error of the mean (SEM) were determined for the injured paw in each treatment group. Since this stimulus is normally not considered painful, significant injury-induced increases in responsiveness in this test are interpreted as a measure of mechanical allodynia.

Test [2] addresses human CB1 receptor (hCB1) (Homo sapiens, UniProt P21554). Put plainly: cAMP assay, agonist/inverse agonist activity at human CB1 receptor. Type of test: cell-based. Conditions: hCB1R, read-out: EC50 at hCB1R (Potency at Human CB1 determined by cAMP Assay). How it is done: The ability of each of the compounds to act as agonists or inverse agonists at human CB2 and CB 1 receptors (hCB2, hCB 1, respectively) and at the rat CB2 receptor (rCB2) was determined by measuring changes in intracellular cyclic AMP (cAMP) levels as described in U.S. Pat. No. 7,517,874.
TR-FRET was measured using a 330-380 nm excitation filter, 615 nm and 665 nm emission filters, dichroic mirror 380 nm and Z=10 mm. cAMP concentrations in each well were back-calculated from a cAMP standard curve run concurrently during each assay. Each plate contained 16 wells of forskolin stimulated cells and 16 wells of forskolin plus 1 μM CP55,940-treated cells. Concentrations of cAMP were expressed as a percent of the difference of these two groups of wells. Concentration-response data including EC50 (the concentration of compound producing 50% of the maximal response) and intrinsic activity (the percent maximal activation compared to full activation by CP55,940) were determined using a four-parameter non-linear regression algorithm (CambridgeSoft Bioassay).
(Changes in cAMP serve as a functional read-out for many G protein-coupled receptors.)

In test [3] the target is human CB2 receptor (hCB2) (Homo sapiens, UniProt P34972). Put plainly: cAMP assay, agonist/inverse agonist activity at human CB2 receptor. Format: cell-based. How it is done:
TR-FRET was measured using a 330-380 nm excitation filter, 615 nm and 665 nm emission filters, dichroic mirror 380 nm and Z=10 mm. cAMP concentrations in each well were back-calculated from a cAMP standard curve run concurrently during each assay. Each plate contained 16 wells of forskolin stimulated cells and 16 wells of forskolin plus 1 μM CP55,940-treated cells. Concentrations of cAMP were expressed as a percent of the difference of these two groups of wells.

The test system of test [4] is Complete Freund's Adjuvant (CFA) model of inflammatory pain. Nature of the test: Anti-hyperalgesia in CFA inflammatory pain model (paw withdrawal latency to thermal stimulus). Format: in vivo, male Sprague-Dawley rats. Conditions: PO dose 3 mg/kg, 1 hr after dosing (24 hr after CFA), rat, read-out: % MPE (1 hr), paw withdrawal latency after CFA injection. How it is done: The anti-hyperalgesic effects of test compounds in the Complete Freund's Adjuvant (CFA) model of inflammatory pain were determined essentially as described in U.S. Pat. No. 7,517,874 using male Sprague-Dawley rats (Hsd: Sprague-Dawley®SD®, Harlan, Indianapolis, Ind.) weighing 200-300 grams.
Test compounds were prepared in a Cremaphor vehicle mixture of 1:1:18 CremophorEL:ethanol:water. Cremophor was obtained from Sigma Chemical (St. Louis, Mo.). Vehicle mixture or vehicle mixture+test compound were each administered p.o.
Assessment of thermal hyperalgesia: Baseline and post-treatment paw withdrawal latencies to a noxious thermal stimulus were measured using a plantar test apparatus (Ugo Basile; obtained from Stoelting, Wood Dale, Ill.). This apparatus generates an infrared heat source that is linearly increasing in intensity. To avoid tissue damage, the power to the heat source was cut off after 20 seconds.
Paw withdrawal latency is defined as the time required for the rat to flick its paw away from the thermal stimulus. Ibuprofen (100 mg/kg, p.o.) was used as the positive control. Paw withdrawal latencies (in seconds) were measured before (naïve paw latency, L1) and 24 hr following (CFA-inflamed paw latency, L2) a single intraplantar injection of 0.1 mL CFA (Sigma-Aldrich, cat F5881, Mycobacterium tuberculosis 1 mg/ml).
Test compounds were administered orally 23 hours following CFA injection; i.e., 1 hour prior to thermal assessment (compound treated CFA-inflamed paw latency, L3). The mean paw withdrawal latency and standard error of the mean (SEM) was determined for the injured paws for each treatment group.
Data were expressed as percent maximum percent effect (% MPE) defined as the percentage of restoration of latency of test compound-treated CFA inflamed paw as compared to the naïve paw latency.

Setting [5] is: hCB2R, cAMP assay, read-out: EC50 at hCB2R (Potency at Human CB2 determined by cAMP Assay).

Read-outs that look alike come from different tables or passages of the source.

Chain of human CB1 receptor (hCB1) (P21554 whole entry): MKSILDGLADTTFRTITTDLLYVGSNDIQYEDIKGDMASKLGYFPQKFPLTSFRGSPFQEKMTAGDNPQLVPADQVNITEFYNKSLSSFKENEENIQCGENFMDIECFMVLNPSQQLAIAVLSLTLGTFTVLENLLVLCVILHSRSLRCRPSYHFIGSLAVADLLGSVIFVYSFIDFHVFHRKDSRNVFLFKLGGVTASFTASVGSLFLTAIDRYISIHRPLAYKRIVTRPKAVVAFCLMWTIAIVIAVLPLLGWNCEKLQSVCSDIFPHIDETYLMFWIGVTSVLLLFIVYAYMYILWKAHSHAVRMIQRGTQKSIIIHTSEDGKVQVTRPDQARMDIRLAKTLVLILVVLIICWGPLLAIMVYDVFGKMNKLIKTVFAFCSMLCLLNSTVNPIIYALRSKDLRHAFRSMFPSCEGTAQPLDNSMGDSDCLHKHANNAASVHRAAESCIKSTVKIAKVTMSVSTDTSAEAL
Chain of human CB2 receptor (hCB2) (P34972 whole entry): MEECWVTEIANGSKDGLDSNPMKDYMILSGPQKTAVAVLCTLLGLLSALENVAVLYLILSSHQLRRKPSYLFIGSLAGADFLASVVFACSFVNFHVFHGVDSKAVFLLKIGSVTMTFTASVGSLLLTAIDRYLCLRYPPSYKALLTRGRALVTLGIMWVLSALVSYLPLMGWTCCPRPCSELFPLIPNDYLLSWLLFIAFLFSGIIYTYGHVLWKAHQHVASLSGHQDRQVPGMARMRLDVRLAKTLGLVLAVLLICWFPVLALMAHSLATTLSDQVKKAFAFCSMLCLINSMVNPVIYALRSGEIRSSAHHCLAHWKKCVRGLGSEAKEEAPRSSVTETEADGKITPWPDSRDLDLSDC

Turning to `CC(C)(C)[C@H](NC(=O)n1nc(-c2ccc(F)c(F)c2)c2c1CCOC2)C(=O)NCCO` [Compound 36, (S)-N-(1-(2-hydroxyethylamino)-3,3-dimethyl-1-oxobutan-2-yl)-3-(3,4-difluorophenyl)-6,7-dihydropyrano[4,3-c]pyrazole-1(4H)-carboxamide], the “sensitivity to non-noxious mechanical stimuli, significance vs. vehicle-controls” value is reported as “significant to p<0.05 vs. vehicle-controls” in test [1] (3 mg/kg oral), “significant to p<0.001 vs. vehicle-controls” in test [1] (10 mg/kg oral) and “significant to p<0.001 vs. vehicle-controls” in test [1] (30 mg/kg oral).

For orientation: EC50 means the concentration giving half of the maximal effect. For the compound `CN(C)S(=O)(=O)N1CCN(C(=O)[C@@H](NC(=O)n2nc(-c3ccc(F)c(F)c3)c3c2CCOC3)C(C)(C)C)CC1` [Compound 112, (S)-3-(3,4-difluorophenyl)-N-(1-(4-(N,N-dimethylsulfamoyl)piperazin-1-yl)-3,3-dimethyl-1-oxobutan-2-yl)-6,7-dihydropyrano-[4,3-c]pyrazole-1(4H)-carboxamide], the EC50 was < 1000 nM in test [2] and > 1000 nM in test [3] (setting [5]).

Regarding `Cc1nnc(CNC(=O)[C@@H](NC(=O)n2nc(-c3ccc(F)c(F)c3)c3c2CCOC3)C(C)(C)C)o1` [Compound 113, (S)-3-(3,4-difluorophenyl)-N-(3,3-dimethyl-1-((5-methyl-1,3,4-oxadiazol-2-yl)methylamino)-1-oxobutan-2-yl)-6,7-dihydropyrano[4,3-c]pyrazole-1(4H)-carboxamide], the half-maximal effective concentration (EC50) in test [2] and in test [3] was < 1000 nM each time.

Regarding `CNC(=O)[C@@H](NC(=O)c1nn(-c2ccc(F)c(F)c2)c2c1COCC2)C(C)(C)C` [Compound 114, (S)-1-(3,4-difluorophenyl)-N-(3,3-dimethyl-1-(methylamino)-1-oxobutan-2-yl)-1,4,6,7-tetrahydropyrano[4,3-c]pyrazole-3-carboxamide], the concentration for a half-maximal effect (EC50) in test [2] and in test [3] (setting [5]) was < 1000 nM each time. Besides, in test [4], the inhibition in vivo at 3 mg/kg came out at 41%.

Turning to `CC(C)(C)[C@H](NC(=O)c1nn(-c2ccc(F)c(F)c2)c2c1COCC2)C(=O)NCCO` [Compound 115, (S)-1-(3,4-difluorophenyl)-N-(1-(2-hydroxyethylamino)-3,3-dimethyl-1-oxobutan-2-yl)-1,4,6,7-tetrahydropyrano[4,3-c]pyrazole-3-carboxamide], the EC50 in test [2] and in test [3] was < 1000 nM each time. Also, in test [4], the inhibition in vivo at 3 mg/kg amounted to 35%.

Turning to `CC(C)(C)[C@H](NC(=O)c1nn(-c2ccc(F)c(F)c2)c2c1CCOC2)C(=O)NCCO` [Compound 116, (S)-1-(3,4-difluorophenyl)-N-(1-(2-hydroxyethylamino)-3,3-dimethyl-1-oxobutan-2-yl)-1,4,5,7-tetrahydropyrano[3,4-c]pyrazole-3-carboxamide], the concentration for a half-maximal effect (EC50) in test [2] and in test [3] was < 1000 nM throughout. Further, the inhibition in vivo at 3 mg/kg in test [4] worked out at 60%.

Consider `CC(C)(C)[C@H](NC(=O)c1nn(-c2ccc(Cl)cc2F)c2c1COCC2)C(=O)NCCO` [Compound 117, (S)-1-(4-chloro-2-fluorophenyl)-N-(1-(2-hydroxyethylamino)-3,3-dimethyl-1-oxobutan-2-yl)-1,4,6,7-tetrahydropyrano[4,3-c]pyrazole-3-carboxamide], for which the concentration giving a half-maximal response (EC50) in test [2] and in test [3] was < 1000 nM in each case.

`CC(C)(C)[C@H](NC(=O)c1nn(-c2ccc(Cl)cc2F)c2c1CCOC2)C(=O)NCCO` [Compound 118, (S)-1-(4-chloro-2-fluorophenyl)-N-(1-(2-hydroxyethylamino)-3,3-dimethyl-1-oxobutan-2-yl)-1,4,5,7-tetrahydropyrano[3,4-c]pyrazole-3-carboxamide]: the EC50 in test [2] and in test [3] was < 1000 nM throughout.

Take `CC(C)(C)[C@H](NC(=O)c1nn(-c2cc(Cl)ccc2F)c2c1COCC2)C(=O)NCCO` [Compound 119, (S)-1-(5-chloro-2-fluorophenyl)-N-(1-(2-hydroxyethylamino)-3,3-dimethyl-1-oxobutan-2-yl)-1,4,6,7-tetrahydropyrano[4,3-c]pyrazole-3-carboxamide]: the EC50 in test [2] and in test [3] was < 1000 nM each time.

Take `CNC(=O)[C@@H](NC(=O)c1nn(-c2ccc(F)c(F)c2)c2c1CN(C)CCC2)C(C)(C)C` [Compound 120, (S)-1-(3,4-difluorophenyl)-N-(3,3-dimethyl-1-(methylamino)-1-oxobutan-2-yl)-5-methyl-1,4,5,6,7,8-hexahydropyrazolo[4,3-c]azepine-3-carboxamide]: the concentration giving a half-maximal response (EC50) in test [2] and in test [3] was < 1000 nM throughout.

For the compound `CC(C)(C)[C@H](NC(=O)c1nn(-c2cc(Cl)ccc2F)c2c1COCC2)C(=O)N1CCNC(=O)C1` [Compound 121, (S)-1-(5-chloro-2-fluorophenyl)-N-(3,3-dimethyl-1-oxo-1-(3-oxopiperazin-1-yl)butan-2-yl)-1,4,6,7-tetrahydropyrano[4,3-c]pyrazole-3-carboxamide], in test [2], the EC50 was < 1000 nM. In test [3] (cAMP assay), the hCBR2 activity entry was “no detectable hCBR2 activity”.

Turning to `CC(C)(C)C(NC(=O)c1nn(-c2cc(Cl)ccc2F)c2c1COCC2)C(=O)N1CCC[C@H]1CO` (stereo partly drawn) [Compound 122], the EC50 in test [2] and in test [3] was < 1000 nM throughout.

On to `Cc1nnc(CNC(=O)[C@@H](NC(=O)c2nn(-c3cc(Cl)ccc3F)c3c2COCC3)C(C)(C)C)o1` [Compound 123], for which the concentration giving a half-maximal response (EC50) in test [2] was < 1000 nM. In addition, the hCBR2 activity entry in test [3] (cAMP assay) is on record as “no detectable hCBR2 activity”.
